Here are results for three compounds from patent EP4775570A1, “CYP11A1 INHIBITOR, PREPARATION METHOD THEREFOR AND USE THEREOF” (Shenzhen Zhongge Biological Technology Co., Ltd., priority 2023, dated 2025).

Series [1] in a line: PK study, intravenous and oral administration, plasma LC-MS/MS. The note with it: both sexes, 5 mg/kg, oral administration of 5 mpk, species not given (ICR mice or SD Rat); for half-life: read-out: half-life (t1/2) (converted); for bioavailability: read-out: bioavailability (F). In kind it is in vivo. The protocol: ICR mice (male/female, total 6 animals) were assigned to two groups for oral administration and intravenous administration, respectively, with 3 mice in each group. Before administration, the animals were fasted for 10-14 hours, with water available ad lib.
SD Rat (male/female, total 6 animals) were assigned to two groups for oral administration and intravenous administration, respectively, with 3 mice in each group. Before administration, the animals were fasted for 10-14 hours, with water available ad lib.
The compounds to be tested were weighed out in accordance with intended dosage, formulated with vehicles (5% DMSO + 10% Solutol + 85% physiological saline) to dosage form at appropriate concentrations (administered intravenously and orally in rats or mice at a volume of 5 mL/kg and 10 mL/kg, respectively). The dosage form for intravenous injection is a clear solution, and the dosage form for oral administration is a clear solution or homogenous suspension.
Administration to animals was conducted through intravenous injection and oral gavage, and blood samples were collected at 0.033, 0.083, 0.25, 0.5, 1, 2, 4, 8, and 24 hours after intravenous injection, or at 0.083, 0.25, 0.5, 1, 2, 4, 6, 8, and 24 hours after oral administration. After centrifugation of whole blood samples at 4°C and 6,800g for 6 minutes, the upper layers of plasma were stored at -80°C refrigerator before analysis.
The DMSO stock solutions of the substance to be tested were diluted with methanol or acetonitrile solution to serial working solutions and added to blank plasma matrix to formulate samples for standard curve and quality control. An appropriate volume of plasma sample was added with appropriate fold of methanol or acetonitrile containing internal standards, according to response, for protein precipitation. After centrifugation of all samples at 4°C and 18,000g for 10 min, appropriate volumes of supernatant were taken for LC-MS/MS analysis.
Plasma drug concentration-time curves were plotted in accordance with tested concentrations, and pharmacokinetic parameters were calculated based on non-compartmental model using WinNonlin software, including half-life (T1/2), area under the drug concentration-time curve (AUC0-t), clearance rate (CL), steady-state distribution volume (Vss), bioavailability (F), etc.

The target in a further series is T1, CYP11A1 (Homo sapiens, UniProt P05108).
T1 construct: host or cells: NCI-H295R
T1 sequence (P05108 40-521): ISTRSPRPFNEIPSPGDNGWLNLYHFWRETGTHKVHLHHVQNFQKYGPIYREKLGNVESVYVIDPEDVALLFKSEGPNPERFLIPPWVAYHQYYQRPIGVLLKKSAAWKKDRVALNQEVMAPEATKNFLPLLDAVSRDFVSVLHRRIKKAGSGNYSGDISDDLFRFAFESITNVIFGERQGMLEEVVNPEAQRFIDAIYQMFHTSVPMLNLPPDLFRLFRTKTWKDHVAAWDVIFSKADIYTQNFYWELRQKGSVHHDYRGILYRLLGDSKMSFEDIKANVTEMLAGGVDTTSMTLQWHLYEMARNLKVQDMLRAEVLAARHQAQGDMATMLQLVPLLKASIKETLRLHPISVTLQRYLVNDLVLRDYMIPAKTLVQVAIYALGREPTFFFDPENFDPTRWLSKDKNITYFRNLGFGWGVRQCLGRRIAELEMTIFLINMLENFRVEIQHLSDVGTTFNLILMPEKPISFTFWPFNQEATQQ
The series can be described thus: NCI-H295R cellular pregnenolone biosynthesis inhibition assay (ELISA method). It counts as cell-based. The following applies: NCI-H295R cells, 3 days incubation, pregnenolone in cell supernatant by ELISA; read-out: IC50. The procedure, abridged: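 NCI-H295R adrenocortical cells (5,000/well) treated 3 days at 37°C with compounds from 10µM top, 3-fold 10-point series, 0.1% DMSO. Pregnenolone in 5×-diluted supernatant measured by competitive ELISA (A450). Inhibition normalised to 1µM ODM-208 (100%) and DMSO (0%); IC50 by four-parameter fit.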
In general terms: An ELISA detects its analyte on a solid surface through an enzyme-linked reagent.

Broadly, the AUC is the area under the concentration-time curve, a measure of exposure. Read a high AUC as high exposure. The IC50 is the point on the concentration scale where inhibition reaches its midpoint. On to `COc1cc(CN2Cc3ccccc3C2)ccc1CCC1CCN(S(C)(=O)=O)CC1` [compound 53], for which, in series [1], the AUC is above 1700 ng·h/mL and the half-life is above 3 h. Further, the IC50 on CYP11A1 was below 100 nM.
As usually defined, the Cmax is the highest concentration seen after dosing. The term bioavailability denotes dose-corrected exposure relative to a reference, in per cent. As for `Cn1c(CN2Cc3ccccc3C2)c(F)cc(C=CC2CCN(C(=O)CC#N)CC2)c1=O` [compound 112], in series [1], the area under the curve (AUC) was above 1700 ng·h/mL, the highest concentration (Cmax) is above 1000 ng/mL and the bioavailability was above 60%. Moreover, at CYP11A1, the half-maximal inhibitory concentration (IC50) was below 100 nM.
For the compound `Cn1c(CN2Cc3ccccc3C2)c(F)cc(CCC2CCN(S(C)(=O)=O)CC2)c1=O` [compound 72], in series [1], the AUC was above 1700 ng·h/mL, the bioavailability is above 60% and the half-life was above 3 h. At CYP11A1, the 50% inhibitory concentration (IC50) is below 100 nM.
